Experimental data taken from PMC4621749 (The Journal of General Physiology, 2015).

Molecular target: T1, frog TRPV3 (Xenopus tropicalis TRPV3) (Xenopus tropicalis, UniProt F6UZP3)
T1 sequence (F6UZP3 1-773): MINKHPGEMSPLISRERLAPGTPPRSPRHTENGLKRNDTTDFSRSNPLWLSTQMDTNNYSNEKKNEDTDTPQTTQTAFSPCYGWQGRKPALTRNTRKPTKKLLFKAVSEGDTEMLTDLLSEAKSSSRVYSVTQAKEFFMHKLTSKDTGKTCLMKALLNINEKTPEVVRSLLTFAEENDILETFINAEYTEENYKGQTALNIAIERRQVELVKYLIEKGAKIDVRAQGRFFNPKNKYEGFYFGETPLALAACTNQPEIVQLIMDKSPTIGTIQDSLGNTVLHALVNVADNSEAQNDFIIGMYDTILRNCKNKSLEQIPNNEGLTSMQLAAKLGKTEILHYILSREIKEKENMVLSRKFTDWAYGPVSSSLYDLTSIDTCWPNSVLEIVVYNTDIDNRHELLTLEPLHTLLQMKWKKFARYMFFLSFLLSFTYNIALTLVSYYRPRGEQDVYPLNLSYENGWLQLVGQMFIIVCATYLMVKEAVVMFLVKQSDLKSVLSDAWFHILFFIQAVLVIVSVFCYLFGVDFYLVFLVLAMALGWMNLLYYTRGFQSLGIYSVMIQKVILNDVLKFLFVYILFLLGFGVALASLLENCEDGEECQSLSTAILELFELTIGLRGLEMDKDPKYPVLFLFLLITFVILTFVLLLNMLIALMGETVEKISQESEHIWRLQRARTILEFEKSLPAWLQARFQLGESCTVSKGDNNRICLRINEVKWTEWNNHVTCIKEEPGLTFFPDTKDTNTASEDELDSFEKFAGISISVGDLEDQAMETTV
Assay: whole-cell patch clamp, HEK293, Hill fit of current density
Format: cell-based

EC50: 269 ± 28 µM
SMILES: NCCOB(c1ccccc1)c1ccccc1 [2-APB]
